The IC50 is the concentration at which inhibition is half-maximal.

A short description of data set [1]: Cytotoxicity against HUVEC cells assessed as inhibition of cell growth by MTT assay. As to conditions: human.
Data set [2] relates to MCF7. Briefly: Antiproliferative activity against human MCF7 cells assessed as inhibition of cell growth by MTT assay. It is filed as functional, cell-based. A general note: Tetrazolium dyes change colour on reduction, which living cells bring about.
Data set [3] deals with PANC-1. Briefly: Antiproliferative activity against human PANC-1 cells assessed as inhibition of cell growth by MTT assay. It is filed as functional, cell-based.
Data set [4] concerns A2780. The experiment in a line: Antiproliferative activity against human A2780 cells assessed as inhibition of cell growth by MTT assay. It is filed as functional, cell-based.
Data set [5] has as its system HCT-116. Briefly: Antiproliferative activity against human HCT-116 cells assessed as inhibition of cell growth by MTT assay. The class given is functional, cell-based.
The subject of data set [6] is RS4-11. Briefly: Antiproliferative activity against human RS4-11 cells assessed as inhibition of cell growth by MTT assay. The class given is functional, cell-based.
Data set [7] relates to K562. The experiment in a line: Antiproliferative activity against human K562 cells assessed as inhibition of cell growth by MTT assay. The class given is functional, cell-based.
The test system of data set [8] is HL-60. The experiment in a line: Antiproliferative activity against human HL-60 cells assessed as inhibition of cell growth by MTT assay. It is filed as functional, cell-based.
The test system of data set [9] is HCT-116. Briefly: Induction of cell cycle arrest in human HCT-116 assessed as S phase cells at 1 uM incubated for 48 hrs by flow cytometric analysis (reference value: 12.79%). It is filed as functional.
In data set [10] the test system is HCT-116. Briefly: Induction of apoptosis in human HCT-116 cells assessed as necrotic cells at 1 uM incubated for 24 hrs by Annexin V-FITC/PI staining based flow cytometry analysis (reference value: 0.00%). It is filed as functional. In general terms: Flow cytometry measures light scatter and fluorescence of single cells or particles in a stream.
In data set [11] the test system is HCT-116. Briefly: Induction of apoptosis in human HCT-116 cells assessed as total apoptotic cells at 1 uM incubated for 24 hrs by Annexin V-FITC/PI staining based flow cytometry analysis (reference value: 6.823%). The class given is functional.
In data set [12] the test system is HCT-116. The experiment in a line: Induction of apoptosis in human HCT-116 cells assessed as viable cells at 1 uM incubated for 24 hrs by Annexin V-FITC/PI staining based flow cytometry analysis (reference value: 93.2%). The class given is functional.
The test system of data set [13] is HCT-116. Briefly: Induction of cell cycle arrest in human HCT-116 assessed as decrease in G0/G1 phase cells at 1 uM incubated for 48 hrs by flow cytometric analysis (reference value: 63.51%). Also noted: scale not given: the % may be the effect or the level left. It is filed as functional.
In data set [14] the test system is HCT-116. Briefly: Induction of apoptosis in human HCT-116 cells assessed as late apoptotic cells at 1 uM incubated for 24 hrs by Annexin V-FITC/PI staining based flow cytometry analysis (reference value: 0.323%). The class given is functional.
For data set [15], the system named is HCT-116. The experiment in a line: Induction of apoptosis in human HCT-116 cells assessed as early apoptotic cells at 1 uM incubated for 24 hrs by Annexin V-FITC/PI staining based flow cytometry analysis (reference value: 6.50%). The class given is functional.
The test system of data set [16] is HCT-116. The experiment in a line: Induction of cell cycle arrest in human HCT-116 assessed as increase in G2/M phase cells at 1 uM incubated for 48 hrs by flow cytometric analysis (reference value: 23.70%). It is filed as functional.

As to `Nc1ccccc1NC(=O)CCCNc1nc2ccccc2nc1-c1nc2ccccc2o1`, the concentration for half-maximal inhibition (IC50) was 27.2 µM in data set [1]; 33.5 µM in [2]; 21.6 µM in data set [3]; 23.9 µM in [4]; 17.2 µM in [5].

As for `O=C(CCCCCNc1nc2ccccc2nc1-c1nc2ccccc2o1)NO`, the half-inhibitory concentration (IC50) in data set [1] was found to be 16.4 µM; in data set [2] it was 3.69 µM; in data set [3], 1.92 µM; in data set [4], 4.07 µM; in [5], 2.44 µM.

As to `Nc1ccccc1NC(=O)CCCCCCCNc1nc2ccccc2nc1-c1nc2ccccc2o1`, the IC50 in data set [1] is 21.5 µM; in data set [2], 12.5 µM; in [3] it was 10.5 µM; in [4] it was 7.13 µM; in data set [5] it was 9.08 µM.

Turning to `Nc1ccccc1NC(=O)CCCCCNc1nc2ccccc2nc1-c1nc2ccccc2o1`, the IC50 was 15.3 µM in data set [1]; 9.36 µM in data set [2]; 11.2 µM in data set [3]; 12.6 µM in [4]; 9.94 µM in data set [5].

Take `O=C(CCCCCCCNc1nc2ccccc2nc1-c1nc2ccccc2o1)NO`: the IC50 was found to be 17.4 µM in [1]; 1.52 µM in data set [2]; 0.89 µM in data set [6]; 2.87 µM in data set [3]; 0.89 µM in data set [7]; 3.27 µM in data set [4]. In addition, the IC50 stood at 0.89 µM in [8] and 3.04 µM in [5].

Turning to `Nc1ccccc1NC(=O)CCCCCCNc1nc2ccccc2nc1-c1nc2ccccc2o1`, the half-inhibitory concentration (IC50) in [1] was 16.7 µM; in data set [2] it was 7.33 µM; in data set [3], 11 µM; in data set [4] it was 17.9 µM; in data set [5], 6.51 µM.

For `O=C(CCCNc1nc2ccccc2nc1-c1nc2ccccc2o1)NO`, the IC50 in data set [1] was 24 µM; in data set [2], 4.98 µM; in data set [3] it was 3.68 µM; in [4] it was 6.29 µM; in data set [5] it was 4.59 µM.

For `O=C(CCCCCCC(=O)Nc1ccccc1)NO` [VORINOSTAT], the Activity worked out at 11.02% in [9]; 0.146% in data set [10]; 41.49% in [11]; 58.4% in data set [12]; 58.11% in data set [13]; 6.59% in data set [14]. Besides, the Activity in data set [15] is 34.9%; in data set [16] it was 30.87%.

(Values after ChEMBL document CHEMBL5257106, “Design, synthesis, and biological evaluation of novel HDAC inhibitors with a 3-(benzazol-2-yl)quinoxaline framework” (Bioorg Med Chem Lett, 2023).)
